Experimental data from US11938177B2, “Peptide vaccine formulations and use thereof for inducing an immune response” (The United States of America, as represented by the …, priority 2016, dated 2024).
Square brackets hold non-standard residues; d marks the D form. Ends that are not written are not given here. Peptide text beside a SMILES is read from it. Lys(N3) = [N-]=[N+]=NCCCC[C@H](N)C(=O)O

Experiments:
[1] = Solubility of synthetic long peptides in aqueous buffer (PBS pH 7.4, bright field microscopy); type: physicochemical
Method: FIGS. 2A-2E: Impact of adjuvant and the composition of amino acids flanking minimal epitopes on CD8 T cell responses induced by synthetic long peptide vaccines. (2A and 2B) Synthetic long peptides delivering the minimal CTL epitope from Ovalbumin (OVA257-264: SIINFEKL, SEQ ID NO: 1) were prepared with either hydrophobic or hydrophilic flanking sequences to provide insoluble (LSI, 1) or soluble (LSS, 3) peptides alone or linked to a TLR-7/8a through a C-terminal azide to yield a LSI-7/8a (2) and LSS-7/8a (4). Bright field microscopy images are shown of […] at 0.1 mg/mL in PBS at pH 7.4. (2C) The TLR-7/8a adjuvant was delivered as either a small molecule (7/8a, 5) or as a particle (PP-7/8a, 6) with the peptide antigens. (2D and 2E) Long peptides (4 nmol) alone or admixed with or covalently attached to adjuvant (4 nmol) were subcutaneously administered into the hind footpads of mice at days 0 and 14. At day 28, tetramer+ CD8 T cell responses were evaluated from whole blood of mice (n=5-25).
FIGS. 4A-4G: Influence of neoantigen flanking sequences on long peptide morphology and CD8 T cell immunity. (4A) The sequences flanking two minimal CD8 T cell neoantigen epitopes, Reps1 (7) and Irgq (9), derived from murine MC38 […] were exchanged to create two chimeric synthetic long peptides, Reps1 FS (8) and Irgq FS (10). Bright field microscopy images are shown for peptides 7-10 at 0.1 mg/mL in PBS at pH 7.4. (4B-4G) The synthetic long peptide-based neoantigens (7-10) (4 nmol) were admixed with adjuvant (4 nmol) and subcutaneously administered into the hind footpads of C57BL/6 mice at days 0 and 14 and on day 28 whole blood was assessed for the percent of total CD8 T cells that were dextramer^+ for Reps1 (4B) and Irgq (4C); the percent of total CD8 T cells that were IFNγ following stimulation with either Reps1 (4D) or Irgq (4E); or, the percent of total CD4 T cells that were IFNγ following stimulation with either Reps1 (4F) or Irgq (4G). Data on log scale are reported as geometric mean with 95% confidence interval (CI). Data are representative of two or more independent experiments. Student's T test was used for comparison of 2 groups; ns, not significant (P>0.05); *, P<0.05; **, P<0.01.
Soluble: Capable of becoming molecularly or ionically dispersed in a solvent to form a homogeneous solution. […] Solubility can be determined visually or using spectroscopic techniques. Turbidity measurements allow for solubility determination indirectly by using a spectrophotometer to measure absorbance in the visible spectrum, typically between 300-500 nm; insoluble materials scatter light that reduces transmittance, leading to increases in measured absorbance (OD). Herein, absorbance measurements at 490 nm were used to assess solubility. […]

[2] = side chain group (epsilon amine; gamma carboxylic acid); cited from earlier work

Row | Compound | solubility in aqueous buffers [1] | pKa [2]
1 | CC[C@H](C)[C@H](NC(=O)[C@@H](NC(=O)[C@@H](N)CO)[C@@H](C)CC)C(=O)N[C@@H](CC(N)=O)C(=O)N[C@@H](Cc1ccccc1)C(=O)N[C@@H](CCC(=O)O)C(=O)N[C@@H](CCCCN)C(=O)N[C@@H](CC(C)C)C(=O)N[C@H](C(=O)N[C@@H](Cc1ccccc1)C(=O)N1CCC[C@H]1C(=O)N[C@@H](CCCNC(=N)N)C(=O)N[C@@H](CO)C(=O)N1CCC[C@H]1C(=O)N[C@H](C(=O)N[C@H](C(=O)N[C@@H](Cc1ccccc1)C(=O)N[C@@H](Cc1ccc(O)cc1)C(=O)N[C@@H](CC(N)=O)C(=O)N[C@H](C(=O)N1CCC[C@H]1C(=O)N1CCC[C@H]1C(=O)N[C@@H](CCSC)C(=O)N1CCC[C@H]1C(=O)N[C@@H](CC(C)C)C(=O)N1CCC[C@H]1C(=O)N1CCC[C@H]1C(=O)N[C@@H](CO)C(=O)N[C@@H](CCC(N)=O)C(=O)N[C@@H](CC(C)C)C(=O)N[C@@H](CCCCN=[N+]=[N-])C(=O)O)[C@@H](C)CC)C(C)C)[C@@H](C)O)C(C)C [LSI] | insoluble | 
2 | CC[C@H](C)[C@H](NC(=O)[C@@H](NC(=O)[C@@H](N)CO)[C@@H](C)CC)C(=O)N[C@@H](CC(N)=O)C(=O)N[C@@H](Cc1ccccc1)C(=O)N[C@@H](CCC(=O)O)C(=O)N[C@@H](CCCCN)C(=O)N[C@@H](CC(C)C)C(=O)N[C@H](C(=O)N[C@@H](CCCCN)C(=O)N1CCC[C@H]1C(=O)N[C@@H](CCCNC(=N)N)C(=O)N[C@@H](CO)C(=O)N1CCC[C@H]1C(=O)N[C@H](C(=O)N[C@@H](CCCNC(=N)N)C(=O)N[C@@H](Cc1ccccc1)C(=O)N[C@@H](CC(=O)O)C(=O)N[C@@H](CC(N)=O)C(=O)N[C@@H](CO)C(=O)N[C@@H](CCCCN)C(=O)N1CCC[C@H]1C(=O)N[C@@H](CO)C(=O)N1CCC[C@H]1C(=O)N[C@@H](CCC(=O)O)C(=O)N1CCC[C@H]1C(=O)N[C@@H](CCCCN)C(=O)N[C@@H](CO)C(=O)N[C@@H](CCC(N)=O)C(=O)N[C@@H](CC(=O)O)C(=O)N[C@@H](CCCCN=[N+]=[N-])C(=O)O)[C@@H](C)O)C(C)C [LSS] (H-SIINFEKLVKPRSPTRFDNSKPSPEPKSQD[Lys(N3)]-OH) | soluble | 
3 | NCCCC[C@H](N)C(=O)O [Lysine] |  | ~10.7
4 | GRVLELFRAAALLNSAVLQIMELCGATR [Irgq FS] | assembled into an aggregate | 
5 | KARDETAQLANDVVLGAAPLFVPPAD [Reps1 FS] | water-soluble | 
